Measurements taken from patent publication US11311522B1 (Cavion, Inc., priority 2018, dated 2022).

Test: PN001/Part I: safety and tolerability
Assay type: in vivo, human
From the text: Safety was monitored throughout by adverse events, vital signs, and repeated clinical and laboratory evaluations. […] All adverse events were mild or moderate and severity and transient.

## CC(C)c1ccc(CC(=O)N[C@H](C)c2ccc(OCC(F)(F)F)cn2)cc1 [CX-8998]
1 mg
  Abnormal physical sensation: 0 n (%)
  At least 1 adverse event: 2 (33.3) n (%)
  Dizziness: 0 n (%)
  Drowsiness: 0 n (%)
  Elevated mood: 0 n (%)
  Euphoric mood: 0 n (%)
  Eye Disorders: 0 n (%)
  Fatigue: 0 n (%)
  Feeling abnormal: 0 n (%)
  Floating feeling: 0 n (%)
  Gastro-intestinal Disorders: 0 n (%)
  Hangover effect: 0 n (%)
  Headache: 2 (33.3) n (%)
  Indifference: 0 n (%)
  Injury, Poisoning and Procedural Complications: 0 n (%)
  Insomnia: 0 n (%)
  Intoxication: 0 n (%)
  Irritability: 0 n (%)
  Lethargy: 0 n (%)
  Nervous System Disorders: 2 (33.3) n (%)
  Paraesthesia: 0 n (%)
  Paraesthesia oral: 0 n (%)
  Paraesthesia tongue: 0 n (%)
  Psychiatric Disorders: 0 n (%)
  Racing thoughts: 0 n (%)
  Relaxed: 0 n (%)
  Sensory disturbance: 0 n (%)
  Vision blurred: 0 n (%)
  Visual disturbance: 0 n (%)
  Vivid dreams: 0 n (%)
1 mg fed
  Abnormal physical sensation: 0 n (%)
  At least 1 adverse event: 0 n (%)
  Dizziness: 0 n (%)
  Drowsiness: 0 n (%)
  Elevated mood: 0 n (%)
  Euphoric mood: 0 n (%)
  Eye Disorders: 0 n (%)
  Fatigue: 0 n (%)
  Feeling abnormal: 0 n (%)
  Floating feeling: 0 n (%)
  Gastro-intestinal Disorders: 0 n (%)
  Hangover effect: 0 n (%)
  Headache: 0 n (%)
  Indifference: 0 n (%)
  Injury, Poisoning and Procedural Complications: 0 n (%)
  Insomnia: 0 n (%)
  Intoxication: 0 n (%)
  Irritability: 0 n (%)
  Lethargy: 0 n (%)
  Nervous System Disorders: 0 n (%)
  Paraesthesia: 0 n (%)
  Paraesthesia oral: 0 n (%)
  Paraesthesia tongue: 0 n (%)
  Psychiatric Disorders: 0 n (%)
  Racing thoughts: 0 n (%)
  Relaxed: 0 n (%)
  Sensory disturbance: 0 n (%)
  Vision blurred: 0 n (%)
  Visual disturbance: 0 n (%)
  Vivid dreams: 0 n (%)
3 mg
  Abnormal physical sensation: 0 n (%)
  At least 1 adverse event: 3 (50.0) n (%)
  Dizziness: 0 n (%)
  Drowsiness: 0 n (%)
  Elevated mood: 0 n (%)
  Euphoric mood: 1 (16.7) n (%)
  Eye Disorders: 0 n (%)
  Fatigue: 0 n (%)
  Feeling abnormal: 0 n (%)
  Floating feeling: 0 n (%)
  Gastro-intestinal Disorders: 0 n (%)
  Hangover effect: 0 n (%)
  Headache: 0 n (%)
  Indifference: 0 n (%)
  Injury, Poisoning and Procedural Complications: 0 n (%)
  Insomnia: 0 n (%)
  Intoxication: 0 n (%)
  Irritability: 0 n (%)
  Lethargy: 0 n (%)
  Nervous System Disorders: 0 n (%)
  Paraesthesia: 0 n (%)
  Paraesthesia oral: 0 n (%)
  Paraesthesia tongue: 0 n (%)
  Psychiatric Disorders: 1 (16.7) n (%)
  Racing thoughts: 0 n (%)
  Relaxed: 0 n (%)
  Sensory disturbance: 0 n (%)
  Vision blurred: 0 n (%)
  Visual disturbance: 0 n (%)
  Vivid dreams: 0 n (%)
